Assay results reported in ChEMBL document CHEMBL4385622, “Discovery of velpatasvir (GS-5816): A potent pan-genotypic HCV NS5A inhibitor in the single-tablet regimens Vosevi® and Epclusa®” (Bioorg Med Chem Lett, 2019).

Key:
[1] = Clearance in dog at 0.25 mg/kg, iv; type: ADME, organism-based, Canis lupus familiaris; conditions: in vivo
[2] = Clearance in monkey at 0.5 mg/kg, iv; type: ADME, organism-based, Macaca mulatta; conditions: rhesus monkey, in vivo
[3] = Fraction absorbed in dog; type: ADME, Canis lupus familiaris; conditions: in vivo, read-out: Fabs
[4] = Fraction absorbed in cynomolgus monkey; type: ADME, Macaca fascicularis; conditions: in vivo, read-out: Fabs
[5] = Fraction absorbed in rat; type: ADME; conditions: in vivo, read-out: Fabs
[6] = Unbound drug level in rat plasma; type: ADME, cell-free
[7] = Unbound drug level in dog plasma; type: ADME, cell-free, Canis lupus familiaris
[8] = Unbound drug level in monkey plasma; type: ADME, cell-free, Macaca mulatta; conditions: rhesus monkey
[9] = Unbound drug level in human plasma; type: ADME, cell-free
[10] = Clearance in rat at 2 mg/kg, iv; type: ADME, organism-based; conditions: in vivo
[11] = Volume of distribution at steady state in rat at 2 mg/kg, iv; type: ADME, organism-based; conditions: in vivo, read-out: Vdss
[12] = Volume of distribution at steady state in dog at 0.25 mg/kg, iv; type: ADME, organism-based, Canis lupus familiaris; conditions: in vivo, read-out: Vdss
[13] = Volume of distribution at steady state in monkey at 0.5 mg/kg, iv; type: ADME, organism-based, Macaca mulatta; conditions: rhesus monkey, in vivo, read-out: Vdss
[14] = Half life in rat at 2 mg/kg, iv; type: ADME, organism-based; conditions: in vivo
[15] = Half life in dog at 0.25 mg/kg, iv; type: ADME, organism-based, Canis lupus familiaris; conditions: in vivo
[16] = Half life in monkey at 0.5 mg/kg, iv; type: ADME, organism-based, Macaca mulatta; conditions: rhesus monkey, in vivo
[17] = Half life in human at 100 mg, po; type: ADME; conditions: in vivo
[18] = Oral bioavailability in rat at 2 mg/kg; type: ADME, organism-based; conditions: in vivo
[19] = Oral bioavailability in dog at 0.5 mg/kg; type: ADME, organism-based, Canis lupus familiaris; conditions: in vivo
[20] = Oral bioavailability in monkey at 1 mg/kg; type: ADME, organism-based, Macaca mulatta; conditions: rhesus monkey, in vivo
[21] = Oral bioavailability in human at 100 mg; type: ADME, organism-based; conditions: in vivo
[22] = Cytotoxicity against human HuH7 cells infected with HCV genotype 1a H77 assessed as reduction in cell viability incubated for 5 days by CellTiter-Glo luminescent assay; type: cell-based, Huh-7
[23] = Cytotoxicity against human HepG2 cells infected with HCV genotype 1a H77 assessed as reduction in cell viability incubated for 5 days by CellTiter-Glo luminescent assay; type: cell-based
[24] = Cytotoxicity against human PC3 cells infected with HCV genotype 1a H77 assessed as reduction in cell viability incubated for 5 days by CellTiter-Glo luminescent assay; type: cell-based, PC-3
[25] = Cytotoxicity against human MT4 cells infected with HCV genotype 1a H77 assessed as reduction in cell viability incubated for 5 days by CellTiter-Glo luminescent assay; type: cell-based
[26] = Cytotoxicity against human MRC5 cells infected with HCV genotype 1a H77 assessed as reduction in cell viability incubated for 5 days by CellTiter-Glo luminescent assay; type: cell-based
[27] = Cytotoxicity against human HuH7 cells infected with HCV genotype 1b Con-1 assessed as reduction in cell viability incubated for 5 days by CellTiter-Glo luminescent assay; type: cell-based, Huh-7
[28] = Cytotoxicity against human HepG2 cells infected with HCV genotype 1b Con-1 assessed as reduction in cell viability incubated for 5 days by CellTiter-Glo luminescent assay; type: cell-based
[29] = Cytotoxicity against human PC3 cells infected with HCV genotype 1b Con-1 assessed as reduction in cell viability incubated for 5 days by CellTiter-Glo luminescent assay; type: cell-based, PC-3
[30] = Cytotoxicity against human MT4 cells infected with HCV genotype 1b Con-1 assessed as reduction in cell viability incubated for 5 days by CellTiter-Glo luminescent assay; type: cell-based
[31] = Cytotoxicity against human MRC5 cells infected with HCV genotype 1b Con-1 assessed as reduction in cell viability incubated for 5 days by CellTiter-Glo luminescent assay; type: cell-based
[32] = Selectivity index, ratio of CC50 for human Huh7 cells infected with HCV genotype 1a H77 to EC50 for NS5A in HCV genotype 1a H77 infected in human HuH7 replicon cells; type: toxicity, cell-based; conditions: read-out: Ratio CC50/EC50
[33] = Selectivity index, ratio of CC50 for human HepG2 cells infected with HCV genotype 1a H77 to EC50 for NS5A in HCV genotype 1a H77 infected in human HepG2 replicon cells; type: toxicity, cell-based; conditions: read-out: Ratio CC50/EC50
[34] = Selectivity index, ratio of CC50 for human PC3 cells infected with HCV genotype 1a H77 to EC50 for NS5A in HCV genotype 1a H77 infected in human PC3 replicon cells; type: toxicity, cell-based; conditions: read-out: Ratio CC50/EC50
[35] = Selectivity index, ratio of CC50 for human MT4 cells infected with HCV genotype 1a H77 to EC50 for NS5A in HCV genotype 1a H77 infected in human MT4 replicon cells; type: toxicity, cell-based; conditions: read-out: Ratio CC50/EC50
[36] = Selectivity index, ratio of CC50 for human MRC5 cells infected with HCV genotype 1a H77 to EC50 for NS5A in HCV genotype 1a H77 infected in human MRC5 replicon cells; type: toxicity, cell-based; conditions: read-out: Ratio CC50/EC50

With `COC[C@H]1C[C@@H](c2ncc(-c3ccc4c(c3)COc3cc5c(ccc6nc([C@@H]7CC[C@H](C)N7C(=O)[C@@H](NC(=O)OC)C(C)C)[nH]c65)cc3-4)[nH]2)N(C(=O)[C@H](NC(=O)OC)c2ccccc2)C1` [VELPATASVIR] the clearance [1] was 4.17 mL/min/kg, the clearance [2] was 5 mL/min/kg and the Fa [3] was 29%. It also gave a Fa [4] of 37%, a Fa [5] of 36% and a Fu [6] of 0.2%. The Fu [7] was 0.2%, the Fu [8] was 0.4% and the Fu [9] was 0.3%. It also gave a clearance [10] of 15.7 mL/min/kg, a Vd [11] of 1.61 L/kg and a Vd [12] of 1.43 L/kg. It also gave a Vd [13] of 1.6 L/kg, a half-life [14] of 2.25 h and a half-life [15] of 5.2 h. For the same molecule, the half-life [16] was 5.03 h, the half-life [17] was 15.7 h and the bioavailability [18] was 28%. For the same molecule, the bioavailability [19] was 25%, the bioavailability [20] was 30% and the bioavailability [21] was 50%. The CC50 at 120 h [22] was greater than 44.4 µM, the CC50 at 120 h [23] was greater than 44.4 µM and the CC50 at 120 h [24] was greater than 44.4 µM. The CC50 at 120 h [25] was greater than 44.4 µM, the CC50 at 120 h [26] was greater than 44.4 µM and the CC50 at 120 h [27] was greater than 44.4 µM. It also gave a CC50 at 120 h [28] greater than 44.4 µM, a CC50 at 120 h [29] greater than 44.4 µM and a CC50 at 120 h [30] greater than 44.4 µM. The CC50 at 120 h [31] was greater than 44.4 µM, the selectivity ratio [32] was greater than 4.9e+06 and the selectivity ratio [33] was greater than 4.9e+06. The selectivity ratio [34] was greater than 4.9e+06, the selectivity ratio [35] was greater than 4.9e+06 and the selectivity ratio [36] was greater than 4.9e+06.
